The text below walks through data of PubChem BioAssay AID179 (DTP/NCI, 2004).

Usually EC50 stands for the concentration giving half of the maximal effect. One may read the IC50 as the concentration that inhibits the measured activity by half. Read a low IC50 as greater potency in that assay.

For this assay, the system named is CEM cells HIV-1 protection, formazan growth assay. The assay is described as follows: NCI AIDS Antiviral Assay. The settings on record: for IC50: measured here: growth of uninfected CEM cells. The gist of the method:
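Protection of CEM cells against HIV-1 measured as cell growth via soluble formazan read-out, with five concentrations tested on both infected and uninfected cells; failure to protect may reflect toxicity.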

Active and inactive are the calls of the source.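 How the source made its calls: active means compounds giving half or more protection of infected cells from virus-caused growth loss, again on retest; inactive means the rest.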 Where a SMILES comes first, the peptide text is derived from it. The star is where a group is joined. Cbz = O=C(OCc1ccccc1)*; Boc = CC(C)(C)OC(=O)*; Bn = c1ccc(C*)cc1

As to `COc1cc(Cl)cc(=O)c(O)c1OC`, the EC50 is above 437 µM and the IC50 was determined as 20.9 µM.
On the same counts, the results for `CCCCC(CC)COC(=O)CC(C(=O)OCC(CC)CCCC)S(=O)(=O)O` (stereo not given) (tested in a mixture with another compound) are above 200 µM and above 200 µM.
As for `CCO/C=N/C1=C(C#N)C(c2ccc(OC)c(OC)c2)c2c(-c3ccccc3)nn(-c3ccccc3)c2O1` (stereo not given), the EC50 was above 100 µM and the IC50 worked out at 14.1 µM.
With `S=C1NC2=C(COc3ccccc32)C(c2ccc(Cl)cc2)N1` (stereo not given), the EC50 was above 200 µM and the IC50 was determined as 23.4 µM.
For the compound `COc1oc(C2C/C(=C/C(C)=C/C(C)=C/C(C)=C/c3ccc([N+](=O)[O-])cc3)CO2)c(C)c(=O)c1C` (stereo not given), the EC50 is above 38.9 µM and the IC50 is 10 µM.
For the compound `COC(=O)C1=C(C)NC2=C(C(=O)c3ccccc32)C1c1cn(-c2ccccc2)nc1-c1ccccc1` (stereo not given), the EC50 was above 200 µM and the IC50 came out at 8.71 µM.
With `O=C(CSc1ncn[nH]1)C[P+](c1ccccc1)(c1ccccc1)c1ccccc1`, the outcome was inactive.
On to `CC(=O)OC1CCC2(C)C(=CCC3C2CCC2(C)C3CC3N(c4ccccc4Cl)C32C#N)C1` (stereo not given), for which the EC50 was above 21.4 µM and the IC50 was above 21.4 µM.
On to `Cc1c(/C=N/NC(=S)N2CCCCC2)c(=O)n(-c2ccccc2)n1C`, for which the EC50 is above 200 µM and the IC50 was determined as 28.8 µM.
`CC(=O)OC1CCn2nnc(CO[Si](C)(C)C(C)(C)C)c21` (stereo not given): the result was inactive.
With `N#CC(c1ccccc1)N(CCc1ccccc1)C(=O)c1ccc(C(=O)N(CCc2ccccc2)C(C#N)c2ccccc2)cc1` (stereo not given), the EC50 is above 200 µM and the IC50 stood at 28.2 µM.
For the compound `CCOC(=O)NC1=NCCS1`, the outcome was inactive.
As for `C=C1C(=O)OC2C1CCC(C)C1C=CC(=O)C12C` (stereo not given), the EC50 was above 200 µM and the IC50 was determined as 1.07 µM.
The corresponding values for `COc1ccc2[nH]c3c(C)c4cc[n+](C)cc4c(C)c3c2c1` are above 20 µM and 0.417 µM.
For the compound `N#Cc1ccccc1NC1OCC(O)C(O)C1O` (stereo not given), the outcome was inactive.
For the compound `COc1ccc(NC(=O)CCc2cc(C(C)(C)C)n[nH]2)cc1`, the EC50 was above 832 µM and the IC50 was above 832 µM.
Regarding `Cc1cc(C)nc(NS(=O)(=O)c2ccc(NC(=O)c3ccccc3SC(=O)CCCC[n+]3ccccc3)cc2)n1`, the EC50 is 17 µM and the IC50 worked out at 51.3 µM.
On the same counts, the results for `Cc1ccc(-n2nncc2[Si](C)(C)C)s1` are above 200 µM and 148 µM.
For the compound `COc1nc(N)c(N=O)c(=O)n1C`, the result was inactive.
With `[Cl][Cu][Cl]`, the EC50 was above 200 µM and the IC50 came out at 182 µM.
In the case of `O=C1CC(c2cccc(Br)c2)n2cccc21` (stereo not given), the outcome was inactive.
`Cc1ccc(NC(=O)Nc2sc(=S)c3c(c2C#N)CCCC3)c(C)c1`: the EC50 is above 58.9 µM and the IC50 is above 58.9 µM.
With `NC(N)=N/N=C/c1c(-c2ccc(Cl)cc2)nc2n1CCS2`, the EC50 is above 200 µM and the IC50 came to 11.2 µM.
Turning to `Cn1c(=O)c2c(nc3n(Cc4ccccc4)c(=O)c(NCCBr)cn23)n(C)c1=O`, the EC50 was above 126 µM and the IC50 was found to be 49 µM.
On the same counts, the results for `O=C1C(Cl)N(c2ccc(Cl)cc2)C1c1c[nH]c2ccccc12` (stereo not given) are above 204 µM and 5.13 µM.
On the same counts, the results for `COc1nc(NC2OCC(O)C(O)C2O)c(NC2OCC(O)C(O)C2O)c(=O)n1C` (stereo not given) are above 575 µM and above 575 µM.
The corresponding values for `Nc1cccc(Nc2nc3ccccc3nc2NS(=O)(=O)c2ccccc2)c1` are above 200 µM and 51.3 µM.
In the case of `CC(C)(C)OC(=O)NC(Cc1ccc(OCc2ccccc2)cc1)C(=O)NC(CCCCNC(=O)OCc1ccccc1)C(=O)O` (stereo not given) (Boc-Tyr(Bn)-Lys(Cbz)-OH; configuration not given here), the EC50 was above 200 µM and the IC50 turned out to be 75.9 µM.
Consider `COc1ccc2c(c1)OC[C@@H]1c3cc(O)c(OCc4ccccc4)cc3O[C@H]21`, for which the EC50 was 9.12 µM and the IC50 was 24 µM.
On the same counts, the results for `Cc1ccc(-n2c(=S)[nH]c3ccc(C)cc3c2=O)cc1` are above 25.7 µM and above 25.7 µM.
On to `Cc1c(C)n(-c2ccccc2)c2nc(S(C)=O)nc(S(C)=O)c12` (stereo not given), for which the EC50 was above 20 µM and the IC50 worked out at 1.35 µM.
On the same counts, the results for `CO/C(=N\N=C\c1ccc(OC)c(OC)c1)c1ccncc1` are above 437 µM and 295 µM.
In the case of `CCCCCCCCP(=O)(O)OP(=O)(O)OCC1OC(n2ccc(N)nc2=O)C(O)C1O` (stereo not given), the EC50 was above 200 µM and the IC50 is above 200 µM.
`Cc1ccc(/C=N/n2c(-c3ccc(C)cc3)n[nH]c2=O)cc1`: the EC50 was above 200 µM and the IC50 was above 200 µM.
Consider `O=C1/C(=C/c2ccc(Cl)cc2)NC(=S)N1CN1CCOCC1`, for which the EC50 was above 200 µM and the IC50 was found to be 32.4 µM.
On the same counts, the results for `N#Cc1cccc(/C=N/N=C(\N)NO)c1` are above 479 µM and 37.2 µM.
The corresponding values for `COc1cc2nc(/C=C/c3nc4cc(OC)c(OC)cc4[nH]3)[nH]c2cc1OC` are above 200 µM and 57.5 µM.
As for `Cc1ccccc1NC(=O)C(=O)Cc1cnc2ccccc2n1`, the EC50 was above 162 µM and the IC50 is above 162 µM.
As for `c1ccc(CN2CCC(Nc3ccccc3)(c3nnnn3Cc3ccccc3)CC2)cc1`, the EC50 is above 200 µM and the IC50 was 33.1 µM.
The corresponding values for `[Cu+2].[O-]/C(=N\N=C\c1ccccn1)c1ccccc1O.[O-]/C(=N\N=C\c1ccccn1)c1ccccc1O` are above 200 µM and 10.2 µM.
On the same counts, the results for `CCOC(=O)N(c1ccccc1)c1cc(=O)n2ccccc2n1` are above 200 µM and above 200 µM.
Take `O=C(CCC(=O)Nc1ccc(Cl)cc1)CC(=O)c1ccc(F)cc1`: the outcome was inactive.
Still for that read-out and setting: with `S=C1NC2=C(COC/C2=C\c2ccccc2Cl)C(c2ccccc2Cl)N1` (stereo not given) the entry was “inactive”; with `COc1ccc(OC)c2c(=S)c3ccccc3[nH]c12`, “inactive”.
In the case of `CCOc1ccccc1N=NC1C(=O)N(C(=O)CC(=O)Nc2ccccc2C)N=C1C` (stereo not given), the EC50 was above 200 µM and the half-inhibitory concentration (IC50) was above 200 µM.
As for `Cc1c(Cl)ccc2[s+]snc12`, the result was inactive.
As to `Cc1ccc2c(ccc(/C=C/c3ccc(O)c4ncccc34)[n+]2C)c1`, the EC50 is above 28.8 µM and the IC50 amounted to 5.89 µM.
The corresponding values for `CCCn1c2ccccc2c2ccc3c(c21)C(=O)C=CC3=O` are above 200 µM and 1.17 µM.
As to `CCOC(=O)/C(C#N)=C/c1ccccc1OC`, the EC50 is above 112 µM and the IC50 is above 112 µM.
With `CCN(CC)CCN1C(=O)CN=C(c2ccccn2)c2cc(Cl)ccc21`, the EC50 is above 447 µM and the IC50 was 240 µM.
On the same counts, the results for `COc1ccc(C(C2=C(O)COC2=O)c2cc3c(cc2O)OCO3)cc1OC` (stereo not given) are above 200 µM and 132 µM.
The corresponding values for `COc1cc(NCC2COc3c(ccc(OC)c3OC)C2=O)c([N+](=O)[O-])cc1OC` (stereo not given) are above 200 µM and 186 µM.
The corresponding values for `CC1(C)NN=C(SCc2ccccc2)NC1=O` are 40.7 µM and 145 µM.
Take `CCOC(=O)N(C)C1(c2ccccc2)CCN(CCCC(=O)c2ccc(F)cc2)CC1`: the EC50 was above 200 µM and the IC50 came to 83.2 µM.
As for `CCOc1ccc(/C=C2/C(=O)N=C(N)N=C2N)cc1OCC`, the outcome was inactive.
As to `O=C1c2ccccc2N2Oc3ccccc3C12c1ccccc1` (stereo not given), the EC50 is above 45.7 µM and the IC50 was above 45.7 µM.
As for `Nc1ncnc2c1ncn2C1OC(CSCC(F)(F)F)C(O)C1O` (stereo not given), the EC50 was above 692 µM and the IC50 is 245 µM.
On the same counts, the results for `C=CCCCCCCCCCOC1C=CC(O)C(CO)O1` (stereo not given) are above 200 µM and 35.5 µM.
Consider `COC(=O)[C@H]1[C@@H](C(C)C)O[C@@H](C(C)C)O[C@H]1C(F)(F)F`, for which the EC50 is above 200 µM and the IC50 was above 200 µM.
`COc1ccccc1C1SC(c2ccccc2)(c2ccccc2)OC1=O` (stereo not given): the EC50 is above 3.98 µM and the IC50 is above 3.98 µM.
`Cc1ccc(/C=C2\CCCCC2=O)cc1`: the result was inactive.
Take `O=C(Nn1cnn2c(=O)c3ccccc3nc2c1=O)c1ccccc1`: the EC50 was above 200 µM and the IC50 was above 200 µM.
Regarding `CCCCN(CCCC)C(=O)C(=O)C(C(=O)c1ccc(OC)cc1)c1ccc(OC)cc1` (stereo not given), the EC50 was above 11.7 µM and the IC50 was above 11.7 µM.
Turning to `Cc1ccc(C)c(COCCOCn2ccc(N)nc2=O)c1`, the EC50 was above 200 µM and the IC50 is above 200 µM.
As for `Nn1c(CCCCCCCCc2nnc(COc3ccc(Cl)cc3)n2N)nnc1COc1ccc(Cl)cc1`, the EC50 was above 200 µM and the IC50 worked out at 85.1 µM.
The corresponding values for `N#CC(F)(F)C(F)(F)C(F)(F)C(F)(F)C(F)(F)C(F)(F)C(F)(F)F` are above 200 µM and above 200 µM.
On the same counts, the results for `CN(C(=O)C1=CCC2(CC1)OCCO2)c1ccccc1OS(=O)(=O)C(F)(F)F` are above 200 µM and above 200 µM.
The corresponding values for `[CH3][Sn]1([CH3])[O]CC(COc2cc(Cl)c(Cl)cc2Cl)[O]1` (stereo not given) are above 24 µM and 15.5 µM.
On to `CN(C)CC1C(O)C2CCN1CC2` (stereo not given), for which the outcome was inactive.
In the case of `CS(=O)(=O)OCC(CCl)(CCl)CCl`, the EC50 is above 933 µM and the IC50 worked out at 661 µM.
On the same counts, the results for `COC(=O)C1=C(O)C(O)=C(C(=O)OC)C1` are 407 µM and 955 µM.
For `Cc1cc(C)c2c(c1)C/C(=C\c1cccc(C)c1C(=O)O)C2=O`, the EC50 is above 200 µM and the IC50 amounted to 129 µM.
Consider `CCCCCCCCCCCC(=O)OCCOCCOCCOCc1ccccc1`, for which the result was inactive.
The same measure, in the same setting: with `O=C(O)c1ccccc1C(c1cc(Br)c(O)c(Br)c1)c1cc(Br)c(O)c(Br)c1` the entry was “inactive”.
Take `COC(=O)C1CC(=O)N(C)c2sc(C)c(C)c2C1=O` (stereo not given): the EC50 is above 282 µM and the concentration for half-maximal inhibition (IC50) was 112 µM.
